Data reported in patent US12599599B2, “Anti-inflammatory, anti-cancer, and anti-angiogenic compounds, pharmaceutical compositions, and methods of making and using thereof” (MEDICON PHARMACEUTICALS, INC., priority 2017, dated 2026).

Key:
[1] = tested on: SKOV-3 human ovarian cancer cell xenografts; experiment: Intraperitoneal luciferase-expressing SKOV-3 tumors in nude mice; format: in vivo; details: 15 mg/kg ip once a day, six days a week
Experimental: The ability of compound 5 to inhibit the growth of human ovarian cancer cell xenografts in nude mice was determined. A mouse model that recapitulates the features of peritoneal spread was used, the peritoneal spread being the clinically most relevant presentation of ovarian cancer. In this model, luciferase-expressing ovarian cancer cells are injected intraperitoneally (ip) into nude mice. Multiple tumors grow in the peritoneal cavity and their growth is monitored periodically using the IVIS Lumina II imaging system following the intraperitoneal administration of luciferin, the substrate of luciferase. The luciferase gene was transfected into SKOV-3 cells, and 2×10^6 cells were intraperitoneally injected into mice. Two weeks later, when tumors had grown, mice treatment was started by intraperitoneally injecting compound 5, 15 mg/kg or vehicle (corn oil), once a day, six days a week (n=10 mice/group).
When the tumor volume of the compound 5 treated mice at the end of the study is compared to that of the day when treatment started (baseline), compound 5 caused 53% tumor regression, with 3 out of 10 mice having barely detectable tumors by imaging and no tumors visible at necropsy.
Compound 6 was also efficacious against chemotherapy-resistant ovarian cancer. […] The effect of compound 6 in cisplatin resistant (A2780cis) and doxorubicin (Adriamycin) resistant (A2780ADR) tumors was studied. Briefly, each of these cell lines was subcutaneously inoculated into athymic nude mice and when the tumor size reached 100-200 mm^3, compound 6 150 mg/kg/day or its vehicle were given i.p. After 11 days of treatment, for the cisplatin-resistant tumors the tumor volume of the vehicle group was 2388±127 mm^3 and for compound 6 group 1032±108 mm^3 (mean±SEM; P<0.02); while for the doxorubicin-resistant tumors these values were: vehicle group=1369±337 mm^3 and compound 6 group=396±182 mm^3 (P<0.02).

A2780 xenografts = experiment: Subcutaneous xenografts in nude mice, platinum sensitive; format: in vivo; details: compound 5 15 mg/kg/day six days a week ip; cis-platinum 5.5 mg/kg one time a week ip
Experimental: To determine whether compound 5 is efficacious against chemotherapy-resistant ovarian cancer, three pairs of sensitive and resistant human ovarian cancer cell lines were grown as subcutaneous xenografts in nude mice and treated as summarized in FIG. 10. These cell lines were: A2780, sensitive to both cis-platinum and Adriamycin (doxorubicin); A2780cis, resistant to cis-platinum; A2780ADR, resistant to Adriamycin: HEY, sensitive to Taxol; HEY-T30, resistant to Taxol. The treatments administered were: vehicle control; compound 5, 15 mg/kg/day six days a week, ip; cis-platinum 5.5 mg/kg, one time a week ip; Adriamycin 3 mg/kg twice a week ip; and Taxol 20 mg/kg twice a week ip.

HEY-T30 xenografts = experiment: Synergy with cyclophosphamide, Taxol resistant subcutaneous xenografts; format: in vivo, nude mice; details: day 21; compound 5 10 mg/kg/day six days a week ip; cyclophosphamide 10 mg/kg six days a week orally; or both
[2] = tested on: SKOV-3 human ovarian cancer cells; experiment: Acridine orange staining by flow cytometry (autophagy); format: cell-based; details: after treatment; 4% before
Experimental: (§1) FIGS. 12A-12C and FIGS. 13A-13C illustrate key findings related to the mechanism of action of compound 5 against ovarian cancer. The studies shown here were performed in SKOV-3 human ovarian cancer cells. FIG. 12A: Left: Compound 5 increases the percentage of cells with acridine orange staining determined by flow cytometry (4% 4→38% after treatment with compound 5) and indicating the induction of autophagy. Right: Electron micrographs show morphological features of cells undergoing autophagy. Yellow arrowheads: vacuoles; white arrowheads: autophagosomes. […] N: nucleus; ER: endoplasmic reticulum with visible ribosomes. The left micrograph shown normal ER (circled) in a vehicle-treated cell. […] The latter finding is diagnostic of ER stress. Magnification: 6,800×. FIG. 12C: Compound 5 suppresses STAT3, mTOR and JNK activation by phosphorylation, as well as the levels of COT.

JNK = experiment: Activation by phosphorylation in SKOV-3 cells; format: cell-based, human
Experimental: as §1

STAT3 = experiment: Activation by phosphorylation in SKOV-3 cells; format: cell-based, human
Experimental: as §1

mTOR = experiment: Activation by phosphorylation in SKOV-3 cells; format: cell-based, human
Experimental: as §1

[3] = tested on: Ras palmitoylation in A2780 and A2780cis ovarian cancer cells; experiment: Ras palmitoylation (resin capture, immunoblot); format: cell-based, human
Experimental: FIGS. 18A-18B illustrate the effect of compounds 5 and 6 on K-Ras. FIG. 18A: Compound 6 suppressed of K-Ras activation. Cells with mutant K-Ras were treated with compound 6 1.5×IC50 for the respective time periods. K-Ras activity was determined by Ras pull-down (Thermo Scientific; following vendor instructions). K-Ras activation is suppressed 37% at 1 hr and 88% at 2 hrs compared to respective controls. FIG. 18B: Compound 5 suppressed the palmitoylation of Ras in A2780 and A2780cis (resistant to cisplatin) ovarian cancer cells. Palmitoylation is detected by removing S-palmitate groups from proteins, creating new free thiols (where the palmitic acid group used to be) and capturing the previously S-palmitoylated proteins on a resin, using a commercial kit (Badrilla, Leeds, UK). Ras was detected in the eluate by immunoblot.
This effect may be particularly useful in types of cancer characterized by K-Ras mutation such as, for example, pancreatic, lung and ovarian cancer. FIG. 18A illustrates the inhibition of K-Ras activation by compound 6. […] This property of compound 5 is not shared for example by compound 6 or phosphosulindac.

[4] = Ocular pharmacokinetics and biodistribution after eye drops; format: in vivo, New Zealand rabbits; set-up: unit not given here; details: rabbit, 20% eye drops
Experimental: The pharmacokinetics and biodistribution of compounds 1, 2, and 5 in the eye of rabbits were determined. Each of these compounds was dissolved in phosphate buffered saline (PBS) and used as eye drops. The eye drops were sterilized before application to rabbits by filtration through a 0.2 μm membrane. […] The eyes were harvested and eye tissues and the lacrimal glands were dissected, homogenized and the test compounds were extracted by acetonitrile and analyzed by HPLC, as described under Compound Synthesis described herein. Compounds 1 and 2 were detected at 328 nm, and compound 5 at 260 nm. […] All three compounds can unexpectedly, readily, and rapidly reach the posterior chamber of the eye.

Drug level in Vitreous [4]: 0.0 | Drug level in Ciliary body ([4]; 40 min): 0.0 | Drug level in Conjunctiva ([4]; 40 min): 33.2 | Drug level in Cornea ([4]; 40 min): 75.7 | Drug level in Iris ([4]; 40 min): 0.6 | Drug level in Lens ([4]; 40 min): 0.0 | Drug level in Retina ([4]; 40 min): 1.8 | Drug level in Sclera ([4]; 40 min): 1.3 | Drug level in Ciliary body ([4]; 60 min): 4.2 | Drug level in Conjunctiva ([4]; 60 min): 35.1 | Drug level in Cornea ([4]; 60 min): 96.7 | Drug level in Iris ([4]; 60 min): 1.9 | Drug level in Lens ([4]; 60 min): 0.0 | Drug level in Retina ([4]; 60 min): 3.4 | Drug level in Sclera ([4]; 60 min): 0.6 | Drug level in Vitreous ([4]; 60 min): 0.0
SMILES: CCN(CC)CCCCNC(=O)c1ccccc1SC/C=C(\C)CC/C=C(\C)CCC=C(C)C [Compound 5]
reduction of tumor volume compared to control ([1]; day 24): 153% | mice having barely detectable tumors by imaging and no tumors visible at necropsy ([1]; end of study): 3 out of 10 | tumor regression vs baseline (day treatment started) ([1]; end of study): 53% | growth of platinum-sensitive xenografts (A2780 xenografts): suppressed the growth | inhibition of tumor growth compared to control (HEY-T30 xenografts): 26% | percentage of cells with acridine orange staining [2]: 38% | JNK activation by phosphorylation (JNK): suppresses | STAT3 activation by phosphorylation (STAT3): suppresses | mTOR activation by phosphorylation (mTOR): suppresses | suppression of palmitoylation of Ras [3]: suppressed
